Like-named read-outs stand apart in the source and are kept apart here.
Key:
hCA II = hCA II (Homo sapiens, UniProt P00918); experiment: CA inhibition, CO2 hydration method, isozyme II; format: biochemical; conditions: for Ki: human cloned isozyme, CO2 hydration method; for hCA II inhibitors, ranking in the series: discussion of Table 1
hCA IX = hCA IX (Homo sapiens, UniProt Q16790); experiment: CA inhibition, CO2 hydration method, isozyme IX (catalytic domain); format: biochemical
hCA I = hCA I (Homo sapiens, UniProt P00915); experiment: CA inhibition, CO2 hydration method, isozyme I; format: biochemical
Chain of hCA I (P00915 whole entry): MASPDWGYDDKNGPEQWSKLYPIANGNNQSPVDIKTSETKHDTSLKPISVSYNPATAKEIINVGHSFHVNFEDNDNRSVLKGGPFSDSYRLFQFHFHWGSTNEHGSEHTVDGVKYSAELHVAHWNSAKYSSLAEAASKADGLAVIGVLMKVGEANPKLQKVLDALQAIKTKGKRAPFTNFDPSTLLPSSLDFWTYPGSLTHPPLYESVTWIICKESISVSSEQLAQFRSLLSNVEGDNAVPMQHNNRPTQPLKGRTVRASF

human red cells [1] = experiment: Ex vivo penetration through red blood cell membranes; conditions: for [sulfonamide] in red blood cells, t = 30 min, HPLC / [sulfonamide] in red blood cells, t = 30 min, ES / [sulfonamide] in red blood cells, t = 60 min, HPLC / [sulfonamide] in red blood cells, t = 60 min, ES / [sulfonamide] in red blood cells, t = 48 h, HPLC / [sulfonamide] in red blood cells, t = 48 h, ES: 3 mM sulfonamide in 5 mM Tris buffer pH 7.4; for [sulfonamide] in red blood cells, t = 30 min, HPLC / [sulfonamide] in red blood cells, t = 60 min, HPLC / [sulfonamide] in red blood cells, t = 48 h, HPLC: HPLC method; for [sulfonamide] in red blood cells, t = 30 min, ES / [sulfonamide] in red blood cells, t = 60 min, ES / [sulfonamide] in red blood cells, t = 48 h, ES: electronic spectroscopy; for membrane permeability at exposure times of 30-60 min / membrane permeability after 48 hours of exposure: human RBCs, pH 7.4
[2] = test system: HeLa cervical carcinoma cells; experiment: Binding of fluorescent sulfonamide to HeLa cells; conditions: hypoxic versus normoxic cells
Procedure: (§2) Sulfonamide treatment of cells. The sulfonamides were dissolved in PBS with 20% DMSO at 100 mM concentration and diluted in a culture medium to a required final concentration just before their addition to cells. Immediately after beginning of the treatment with sulfonamides, the cells were transferred to hypoxia and incubated for 48 h. Parallel cultures were maintained for the same time period in normoxia.

[3] = test system: HeLa cervical carcinoma cells; experiment: Effect on extracellular pH of HeLa cells in hypoxia; format: cell-based; conditions: hypoxia 48 h, 1 mM
Procedure: Cell cultures. MDCK and HeLa cells as well as their transfected derivatives were grown in DMEM with 10% FCS (BioWhittaker, Verviers, Belgium) buffered with 22.4 mM bicarbonate and containing supplements as described before (Svastova, E.; et al.; Exp. Cell. Res. 2003, 290, 332-345) To maintain standard experimental conditions, the cells were always plated in 3 ml of culture medium at a density of 0.8−1×10^6 per 6 cm dish 24 h before the transfer to hypoxia (2% O2 and 5% CO2 balanced with N2) generated in a Napco 7000 incubator, where they were grown for additional 48 h (if not stated otherwise). Parallel normoxic dishes were incubated in air with 5% CO2.
(§1) Sulfonamide treatment of cells. […] Images were acquired by Nikon Coolpix 990.
Mean differences in the pH values determined in the treated versus control dishes are shown on the histogram with indicated standard deviations. The experiment was repeated three times using at least three parallel dishes for each sample.

[4] = test system: SiHa cervical carcinoma cells; experiment: Effect on extracellular pH of SiHa cells in hypoxia; format: cell-based; conditions: hypoxia 48 h, 1 mM
[5] = test system: SiHa cervical carcinoma cells; experiment: Binding of fluorescent sulfonamide to SiHa cells; conditions: hypoxic versus normoxic cells
Procedure: as §2

MDCK-CA IX cells = experiment: Binding of fluorescent sulfonamide to MDCK-CA IX cells (fluorescence microscopy); format: cell-based, canine; conditions: CA IX-positive and mock-transfected MDCK cells, normoxia or hypoxia 48 h
Excerpt: as §1

human red cells [6] = test system: human red cells
hCA XII = hCA XII (Homo sapiens, UniProt O43570); experiment: CA inhibition, CO2 hydration method, isozyme XII (catalytic domain); format: biochemical; conditions: Table 2, catalytic domain of human cloned isozyme
Chain of hCA XII (O43570 30-289 limits assumed): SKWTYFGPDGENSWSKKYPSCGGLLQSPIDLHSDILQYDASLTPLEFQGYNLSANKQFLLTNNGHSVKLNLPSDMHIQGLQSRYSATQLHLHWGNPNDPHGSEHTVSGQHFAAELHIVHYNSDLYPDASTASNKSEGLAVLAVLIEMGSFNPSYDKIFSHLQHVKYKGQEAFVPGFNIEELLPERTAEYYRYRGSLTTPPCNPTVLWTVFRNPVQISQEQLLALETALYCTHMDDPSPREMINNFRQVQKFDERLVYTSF

[7] = Table 1, catalytic domain of human cloned isozyme
[8] = Table 1, human cloned isozyme, read-out: KI hCA I
[9] = Table 2, catalytic domain of human cloned isozyme
[10] = Table 2, human cloned isozyme, read-out: KI hCA I

SMILES | Ki (hCA II; Table 1) [nM] | Ki (hCA IX; [7]) [nM] | Ki (hCA I; [8]) [nM] | Ki (hCA II; Table 2) [nM] | Ki (hCA XII) [nM] | Ki (hCA IX; [9]) [nM] | Ki (hCA I; [10]) [nM] | other results
NS(=O)(=O)c1ccc(NC(=S)Nc2ccc(-c3c4ccc(=O)cc-4oc4cc(O)ccc34)c(C(=O)O)c2)cc1 [5a, (4-Sulfamoylphenyl)thioureido fluorescein] | 41 | 29 | 1500 |  |  |  |  | 
NS(=O)(=O)c1ccc(CNC(=S)Nc2ccc(-c3c4ccc(=O)cc-4oc4cc(O)ccc34)c(C(=O)O)c2)cc1 [5b, (4-sulfamoylphenylmethyl)thioureido fluorescein] |  | 26 | 1450 |  |  |  |  | [sulfonamide] in red blood cells, t = 30 min, HPLC (human red cells [1]): 0.5 µM; [sulfonamide] in red blood cells, t = 30 min, ES (human red cells [1]): 0.8 µM; [sulfonamide] in red blood cells, t = 60 min, HPLC (human red cells [1]): 0.8 µM; [sulfonamide] in red blood cells, t = 60 min, ES (human red cells [1]): 0.8 µM; [sulfonamide] in red blood cells, t = 48 h, HPLC (human red cells [1]): 10.1 µM; [sulfonamide] in red blood cells, t = 48 h, ES (human red cells [1]): 2.5 µM; membrane permeability at exposure times of 30-60 min (human red cells [1]): decreased membrane permeability; membrane permeability after 48 hours of exposure (human red cells [1]): slightly more permeant
NS(=O)(=O)c1ccc(CCNC(=S)Nc2ccc(-c3c4ccc(=O)cc-4oc4cc(O)ccc34)c(C(=O)O)c2)cc1 [5c, (4-Sulfamoylphenylethyl)thioureido fluorescein] |  |  |  |  |  |  |  | [sulfonamide] in red blood cells, t = 30 min, HPLC (human red cells [1]): 0.4 µM; [sulfonamide] in red blood cells, t = 30 min, ES (human red cells [1]): 0.9 µM; [sulfonamide] in red blood cells, t = 60 min, HPLC (human red cells [1]): 0.6 µM; [sulfonamide] in red blood cells, t = 60 min, ES (human red cells [1]): 1.2 µM; [sulfonamide] in red blood cells, t = 48 h, HPLC (human red cells [1]): 10.4 µM; [sulfonamide] in red blood cells, t = 48 h, ES (human red cells [1]): 3.0 µM; membrane permeability at exposure times of 30-60 min (human red cells [1]): decreased membrane permeability; membrane permeability after 48 hours of exposure (human red cells [1]): slightly more permeant; binding to HeLa cells [2]: binds to hypoxic HeLa and SiHa cells; acidosis (pHe) of hypoxic HeLa cells [3]: reduced; acidosis (pHe) of hypoxic SiHa cells [4]: reduced; binding to SiHa cells [5]: binds to hypoxic HeLa and SiHa cells; fluorescence signal (binding to cells) (MDCK-CA IX cells): detected only in the hypoxic MDCK-CA IX cells; Ki (hCA I; KI hCA I, Table 1, human cloned isozyme): 1300 nM
NS(=O)(=O)c1ccc(NNC(=S)Nc2ccc(-c3c4ccc(=O)cc-4oc4cc(O)ccc34)c(C(=O)O)c2)cc1 [5d] | 40 | 25 | 1200 |  |  |  |  | 
NS(=O)(=O)c1ccc(NC(=S)Nc2ccc(-c3c4ccc(=O)cc-4oc4cc(O)ccc34)c(C(=O)O)c2)c(F)c1 [5e] |  | 30 | 980 |  |  |  |  | 
NS(=O)(=O)c1ccc(NC(=S)Nc2ccc(-c3c4ccc(=O)cc-4oc4cc(O)ccc34)c(C(=O)O)c2)c(Cl)c1 [5f] | 52 | 32 | 950 |  |  |  |  | 
NS(=O)(=O)c1ccc(NC(=S)Nc2ccc(-c3c4ccc(=O)cc-4oc4cc(O)ccc34)c(C(=O)O)c2)c(Br)c1 [5g] | 43 | 35 | 1100 |  |  |  |  | 
NS(=O)(=O)c1ccc(NC(=S)Nc2ccc(-c3c4ccc(=O)cc-4oc4cc(O)ccc34)c(C(=O)O)c2)c(I)c1 [5h, (2-Iodo-4-sulfamoylphenyl)thioureido fluorescein] | 40 | 31 | 1070 |  |  |  |  | 
NS(=O)(=O)c1cccc(NC(=S)Nc2ccc(-c3c4ccc(=O)cc-4oc4cc(O)ccc34)c(C(=O)O)c2)c1 [5i, (3-Sulfamoylphenyl)thioureido fluorescein] | 52 | 34 | 1400 |  |  |  |  | 
NS(=O)(=O)c1ccc(CNS(=O)(=O)c2ccc(NC(=S)Nc3ccc(-c4c5ccc(=O)cc-5oc5cc(O)ccc45)c(C(=O)O)c3)cc2)cc1 [5j] | 34 | 20 | 630 |  |  |  |  | hCA II inhibitors, ranking in the series (hCA II): best hCA II inhibitors in this series
NS(=O)(=O)c1nnc(NS(=O)(=O)c2ccc(NC(=S)Nc3ccc(-c4c5ccc(=O)cc-5oc5cc(O)ccc45)c(C(=O)O)c3)cc2)s1 [5k, [4-(5-Sulfamoyl-[1,3,4]thiadiazol-2-ylsulfamoyl)-phenyl]-thioureido fluorescein] | 27 | 16 | 480 |  |  |  |  | hCA II inhibitors, ranking in the series (hCA II): best hCA II inhibitors in this series
CC(=O)/N=c1/sc(S(N)(=O)=O)nn1C [MZA, methazolamide, reference compound] |  |  |  |  |  |  |  | [sulfonamide] in red blood cells, t = 30 min, HPLC (human red cells [1]): 170 µM; [sulfonamide] in red blood cells, t = 30 min, ES (human red cells [1]): 169 µM; [sulfonamide] in red blood cells, t = 60 min, HPLC (human red cells [1]): 168 µM; [sulfonamide] in red blood cells, t = 60 min, ES (human red cells [1]): 168 µM; [sulfonamide] in red blood cells, t = 48 h, HPLC (human red cells [1]): 167 µM; [sulfonamide] in red blood cells, t = 48 h, ES (human red cells [1]): 169 µM; penetration through red blood cell membranes (human red cells [6]): easily penetrate through biological membranes
NS(=O)(=O)c1ccc(NC(=O)Nc2ccc(-c3c4ccc(=O)cc-4oc4cc(O)ccc34)c(C(=O)O)c2)cc1 [compound 1, (4-Sulfamoylphenyl)ureido fluorescein] |  |  |  | 36 | 11 | 21 | 1700 | 
NS(=O)(=O)c1cccc(NC(=O)Nc2ccc(-c3c4ccc(=O)cc-4oc4cc(O)ccc34)c(C(=O)O)c2)c1 [compound 2, (3-Sulfamoylphenyl)ureido fluorescein] |  |  |  | 43 | 9 | 30 | 1800 | 
NS(=O)(=O)c1ccccc1NC(=O)Nc1ccc(-c2c3ccc(=O)cc-3oc3cc(O)ccc23)c(C(=O)O)c1 [compound 3, (2-Sulfamoylphenyl)ureido fluorescein] |  |  |  | 76 | 18 | 46 | 1900 | 
NS(=O)(=O)c1ccc(CNC(=O)Nc2ccc(-c3c4ccc(=O)cc-4oc4cc(O)ccc34)c(C(=O)O)c2)cc1 [compound 4, (4-Sulfamoylphenylmethyl)ureido fluorescein] |  |  |  | 40 | 8 | 21 | 1560 | 
NS(=O)(=O)c1ccc(CCNC(=O)Nc2ccc(-c3c4ccc(=O)cc-4oc4cc(O)ccc34)c(C(=O)O)c2)cc1 [compound 5, (4-Sulfamoylphenylethyl)ureido fluorescein] |  |  |  | 35 | 7 |  | 1340 | 
NS(=O)(=O)c1ccc(NC(=O)Nc2ccc(-c3c4ccc(=O)cc-4oc4cc(O)ccc34)c(C(=O)O)c2)c(F)c1 [compound 6, (2-Fluoro-4-sulfamoylphenyl)ureido fluorescein] |  |  |  | 40 | 10 | 21 | 1200 | 
NS(=O)(=O)c1ccc(NC(=O)Nc2ccc(-c3c4ccc(=O)cc-4oc4cc(O)ccc34)c(C(=O)O)c2)c(Cl)c1 [compound 7] |  |  |  | 43 | 12 | 22 | 1330 | 
NS(=O)(=O)c1ccc(NC(=O)Nc2ccc(-c3c4ccc(=O)cc-4oc4cc(O)ccc34)c(C(=O)O)c2)c(I)c1 [compound 9, (2-Iodo-4-sulfamoylphenyl)ureido fluorescein] |  |  |  | 43 | 7 | 21 | 1350 | 
NS(=O)(=O)c1ccc(CNS(=O)(=O)c2ccc(NC(=O)Nc3ccc(-c4c5ccc(=O)cc-5oc5cc(O)ccc45)c(C(=O)O)c3)cc2)cc1 [compound 10, [4-(4-Sulfamoyl-benzylsulfamoyl)-phenyl]-ureido fluorescein] |  |  |  | 14 | 5 | 7 | 520 | 
NS(=O)(=O)c1nnc(NS(=O)(=O)c2ccc(NC(=O)Nc3ccc(-c4c5ccc(=O)cc-5oc5cc(O)ccc45)c(C(=O)O)c3)cc2)s1 [compound 11, [4-(5-Sulfamoyl-[1,3,4]thiadiazol-2-ylsulfamoyl)-phenyl]-ureido fluorescein] |  |  |  | 13 | 3 | 6 | 410 | 
